Data published in patent US20260191968A1, “PROTAC DEGRADERS OF MLLT1 AND/OR MLLT3” (DARK BLUE THERAPEUTICS LTD, priority 2024, published 2026).

Target: T1, MLLT1 (Homo sapiens, UniProt Q03111)
T1 construct: host or cells: MV4-11
T1 sequence (Q03111 1-559): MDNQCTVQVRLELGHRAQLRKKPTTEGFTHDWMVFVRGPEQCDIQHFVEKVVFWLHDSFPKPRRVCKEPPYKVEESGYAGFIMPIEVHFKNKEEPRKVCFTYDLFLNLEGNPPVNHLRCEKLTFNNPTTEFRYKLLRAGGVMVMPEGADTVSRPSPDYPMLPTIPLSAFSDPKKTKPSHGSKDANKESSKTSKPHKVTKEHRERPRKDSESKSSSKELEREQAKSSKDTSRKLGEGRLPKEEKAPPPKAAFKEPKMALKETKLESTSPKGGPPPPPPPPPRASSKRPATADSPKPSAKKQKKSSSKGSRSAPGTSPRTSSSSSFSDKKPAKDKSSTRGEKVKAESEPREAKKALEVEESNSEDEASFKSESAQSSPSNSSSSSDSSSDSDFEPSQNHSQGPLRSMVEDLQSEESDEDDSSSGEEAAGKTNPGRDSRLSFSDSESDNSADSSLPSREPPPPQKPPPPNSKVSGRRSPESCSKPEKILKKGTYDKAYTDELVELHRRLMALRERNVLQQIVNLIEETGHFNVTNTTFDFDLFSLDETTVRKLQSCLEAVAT
Experiment: MLLT1 degradation assay in MV4-11 cells (JESS chemiluminescent detection), three concentrations, 24 h
Format: cell-based
Conditions: with respect to DMSO control
Method in brief: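 MV4-11 cells treated 24 h at 37° C, 5% CO2 with 1000, 100 and 10 nM compound (0.1% DMSO final). MLLT1 quantified by automated capillary chemiluminescent immunodetection; band peak area expressed as % degradation relative to DMSO control.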

SMILES | MLLT1% Degradation @ 0.01 μM | MLLT1% Degradation @ 0.1 μM | MLLT1% Degradation @ 1 μM
CN1CCC[C@@H]1c1cc2cnc(NC(=O)c3ccc(N4CCN(CC5CCN(c6ccc(C(=O)N[C@H]7CCC(=O)NC7=O)nc6)CC5)CC4)cc3)cc2[nH]1 [Example 181, N—((S)-2,6-dioxopiperidin-3-yl)-5-(4-((4-(4-((2-((R)-1-methylpyrrolidin-2-yl)-1H-pyrrolo[3,2-c]pyridin-6-yl)carbamoyl)phenyl)piperazin-1-yl)methyl)piperidin-1-yl)picolinamide] | D (Category D: D < 25% degradation) | C (Category C: 25% ≤ C < 50% degradation) | B (Category B: 50% ≤ B < 75% degradation)
CN1CCC[C@@H]1c1cc2cnc(NC(=O)c3ccc(N4CCN(CC5CCN(c6cccc(C(=O)N[C@H]7CCC(=O)NC7=O)n6)CC5)CC4)cc3)cc2[nH]1 [Example 182, N—((S)-2,6-dioxopiperidin-3-yl)-6-(4-((4-(4-((2-((R)-1-methylpyrrolidin-2-yl)-1H-pyrrolo[3,2-c]pyridin-6-yl)carbamoyl)phenyl)piperazin-1-yl)methyl)piperidin-1-yl)picolinamide] | C (Category C: 25% ≤ C < 50% degradation) | B (Category B: 50% ≤ B < 75% degradation) | B (Category B: 50% ≤ B < 75% degradation)
CN1CCC[C@@H]1c1cc2cnc(NC(=O)c3ccc(N4CC(CN5CCN(c6ccc7c(c6)C(=O)N(C6CCC(=O)NC6=O)C7=O)CC5)C4)cc3)cc2[nH]1 (stereo partly drawn) [Example 183, 4-(3-((4-(2-(2,6-dioxopiperidin-3-yl)-1,3-dioxoisoindolin-5-yl)piperazin-1-yl)methyl)azetidin-1-yl)-N-(2-((R)-1-methylpyrrolidin-2-yl)-1H-pyrrolo[3,2-c]pyridin-6-yl)benzamide] | C (Category C: 25% ≤ C < 50% degradation) | B (Category B: 50% ≤ B < 75% degradation) | B (Category B: 50% ≤ B < 75% degradation)
CN1CCC[C@@H]1c1cc2cnc(NC(=O)c3ccc(OC4CCN(CC5CCN(c6cc7c(cc6F)C(=O)N(C6CCC(=O)NC6=O)C7=O)CC5)CC4)cc3)cc2[nH]1 (stereo partly drawn) [Example 184, 4-((1-((1-(2-(2,6-dioxopiperidin-3-yl)-6-fluoro-1,3-dioxoisoindolin-5-yl)piperidin-4-yl)methyl)piperidin-4-yl)oxy)-N-(2-((R)-1-methylpyrrolidin-2-yl)-1H-pyrrolo[3,2-c]pyridin-6-yl)benzamide] | B (Category B: 50% ≤ B < 75% degradation) | A (Category A: A ≥ 75% degradation) | A (Category A: A ≥ 75% degradation)
CN1CCC[C@@H]1c1cc2cnc(NC(=O)c3ccc(N4CCC(C#Cc5cccc6c5CN(C5CCC(=O)NC5=O)C6=O)CC4)nn3)cc2[nH]1 (stereo partly drawn) [Example 185, 6-(4-((2-(2,6-dioxopiperidin-3-yl)-1-oxoisoindolin-4-yl)ethynyl)piperidin-1-yl)-N-(2-((R)-1-methylpyrrolidin-2-yl)-1H-pyrrolo[3,2-c]pyridin-6-yl)pyridazine-3-carboxamide] | C (Category C: 25% ≤ C < 50% degradation) | B (Category B: 50% ≤ B < 75% degradation) | B (Category B: 50% ≤ B < 75% degradation)
CN1CCC[C@@H]1c1cc2cnc(NC(=O)c3ccc(N4CC[C@H](CC#Cc5cccc6c5CN(C5CCC(=O)NC5=O)C6=O)C4)nc3)cc2[nH]1 (stereo partly drawn) [Example 187, 6-((3S)-3-(3-(2-(2,6-dioxopiperidin-3-yl)-1-oxoisoindolin-4-yl)prop-2-yn-1-yl)pyrrolidin-1-yl)-N-(2-((R)-1-methylpyrrolidin-2-yl)-1H-pyrrolo[3,2-c]pyridin-6-yl)nicotinamide] | B (Category B: 50% ≤ B < 75% degradation) | B (Category B: 50% ≤ B < 75% degradation) | B (Category B: 50% ≤ B < 75% degradation)
CN1CCC[C@@H]1c1cc2cnc(NC(=O)c3ccc(N4CCC(CCCCC#Cc5cccc6c5CN(C5CCC(=O)NC5=O)C6=O)CC4)nc3)cc2[nH]1 (stereo partly drawn) [Example 188, 6-(4-(6-(2-(2,6-dioxopiperidin-3-yl)-1-oxoisoindolin-4-yl)hex-5-yn-1-yl)piperidin-1-yl)-N-(2-((R)-1-methylpyrrolidin-2-yl)-1H-pyrrolo[3,2-c]pyridin-6-yl)nicotinamide] | C (Category C: 25% ≤ C < 50% degradation) | B (Category B: 50% ≤ B < 75% degradation) | B (Category B: 50% ≤ B < 75% degradation)
CN1CCC[C@@H]1c1cc2cnc(NC(=O)c3ccc(N4CCN(C(=O)CCC5CCN(c6cccc7c6CN(C6CCC(=O)NC6=O)C7=O)CC5)CC4)cc3)cc2[nH]1 (stereo partly drawn) [Example 189, 4-(4-(3-(1-(2-(2,6-dioxopiperidin-3-yl)-1-oxoisoindolin-4-yl)piperidin-4-yl)propanoyl)piperazin-1-yl)-N-(2-((R)-1-methylpyrrolidin-2-yl)-1H-pyrrolo[3,2-c]pyridin-6-yl)benzamide] | B (Category B: 50% ≤ B < 75% degradation) | B (Category B: 50% ≤ B < 75% degradation) | C (Category C: 25% ≤ C < 50% degradation)
CN1CCC[C@@H]1c1cc2cnc(NC(=O)c3cccc(N4CCN(CC5CCN(c6ccc7c(c6)CN(C6CCC(=O)NC6=O)C7=O)CC5)CC4)c3)cc2[nH]1 (stereo partly drawn) [Example 192, 3-(4-((1-(2-(2,6-dioxopiperidin-3-yl)-1-oxoisoindolin-5-yl)piperidin-4-yl)methyl)piperazin-1-yl)-N-(2-((R)-1-methylpyrrolidin-2-yl)-1H-pyrrolo[3,2-c]pyridin-6-yl)benzamide] | B (Category B: 50% ≤ B < 75% degradation) | B (Category B: 50% ≤ B < 75% degradation) | C (Category C: 25% ≤ C < 50% degradation)
Cc1cc(OC2CCN(c3ccc(C(=O)Nc4cc5[nH]c([C@H]6CCCN6C)cc5cn4)cn3)CC2)ccc1-c1cccc2c1CN(C1CCC(=O)NC1=O)C2=O (stereo partly drawn) [Example 196, 6-(4-(4-(2-(2,6-dioxopiperidin-3-yl)-1-oxoisoindolin-4-yl)-3-methylphenoxy)piperidin-1-yl)-N-(2-((R)-1-methylpyrrolidin-2-yl)-1H-pyrrolo[3,2-c]pyridin-6-yl)nicotinamide] | D (Category D: D < 25% degradation) | B (Category B: 50% ≤ B < 75% degradation) | A (Category A: A ≥ 75% degradation)
CN1CCC[C@@H]1c1cc2cnc(NC(=O)c3ccc(CCCN4CCC(c5cccc6c5CN(C5CCC(=O)NC5=O)C6=O)CC4)cc3)cc2[nH]1 (stereo partly drawn) [Example 198, 4-(3-(4-(2-(2,6-dioxopiperidin-3-yl)-1-oxoisoindolin-4-yl)piperidin-1-yl)propyl)-N-(2-((R)-1-methylpyrrolidin-2-yl)-1H-pyrrolo[3,2-c]pyridin-6-yl)benzamide] | C (Category C: 25% ≤ C < 50% degradation) | A (Category A: A ≥ 75% degradation) | A (Category A: A ≥ 75% degradation)
CN1CCC[C@@H]1c1cc2cnc(NC(=O)c3ccc(OC4CC5(CCN(c6cccc7c6CN(C6CCC(=O)NC6=O)C7=O)CC5)C4)cc3F)cc2[nH]1 (stereo partly drawn) [Example 200, 4-((7-(2-(2,6-dioxopiperidin-3-yl)-1-oxoisoindolin-4-yl)-7-azaspiro[3.5]nonan-2-yl)oxy)-2-fluoro-N-(2-((R)-1-methylpyrrolidin-2-yl)-1H-pyrrolo[3,2-c]pyridin-6-yl)benzamide] | B (Category B: 50% ≤ B < 75% degradation) | A (Category A: A ≥ 75% degradation) | A (Category A: A ≥ 75% degradation)
CN1CCC[C@@H]1c1cc2cnc(NC(=O)c3ccc(OCC4CC5(CCN(c6cccc7c6CN(C6CCC(=O)NC6=O)C7=O)CC5)C4)cc3F)cc2[nH]1 (stereo partly drawn) [Example 201, 4-((7-(2-(2,6-dioxopiperidin-3-yl)-1-oxoisoindolin-4-yl)-7-azaspiro[3.5]nonan-2-yl)methoxy)-2-fluoro-N-(2-((R)-1-methylpyrrolidin-2-yl)-1H-pyrrolo[3,2-c]pyridin-6-yl)benzamide] | B (Category B: 50% ≤ B < 75% degradation) | A (Category A: A ≥ 75% degradation) | A (Category A: A ≥ 75% degradation)
CN1CCC[C@@H]1c1cc2cnc(NC(=O)c3ccc(N4CCC5(CC4)CCN(c4cccc6c4CN(C4CCC(=O)NC4=O)C6=O)CC5)cc3F)cc2[nH]1 (stereo partly drawn) [Example 202, 4-(9-(2-(2,6-dioxopiperidin-3-yl)-1-oxoisoindolin-4-yl)-3,9-diazaspiro[5.5]undecan-3-yl)-2-fluoro-N-(2-((R)-1-methylpyrrolidin-2-yl)-1H-pyrrolo[3,2-c]pyridin-6-yl)benzamide] | D (Category D: D < 25% degradation) | C (Category C: 25% ≤ C < 50% degradation) | C (Category C: 25% ≤ C < 50% degradation)
